Results reported in ChEMBL document CHEMBL3879905, “Methods of using macrocyclic modulators of the ghrelin receptor” (2013).
The source made the active and inactive calls. No cut-off for these calls is given here.

Experiments:
[1] = test system: Rattus norvegicus; test: Gastrokinetic activity in Wistar rat gastroparesis model at 10 mg/kg, iv administered immediately post phenol red containing methylcellulose meal intake measured after 15 mins by colorimetric method relative to vehicle-treated control; assay type: functional, organism-based
[2] = test system: Rattus norvegicus; test: Induction of gastric emptying of solid meal in Wistar rat gastroparesis model at 10 mg/kg, iv administered immediately post phenol red containing methylcellulose meal intake measured after 15 mins by colorimetric method relative to vehicle-treated control; assay type: functional, Stomach
[3] = test system: Rattus norvegicus; test: Induction of gastric emptying of solid meal in Wistar rat gastroparesis model at 100 ug/kg, iv administered immediately post phenol red containing methylcellulose meal intake measured after 15 mins by colorimetric method relative to vehicle-treated control; assay type: functional, Stomach
[4] = Metabolic stability in human plasma assessed as compound recovery in presence of PBS at 2 hrs by LC-MS analysis; assay type: ADME, cell-free; conditions: read-out: Drug recovery
[5] = molecular target: Cytochrome P450 3A4 (Homo sapiens, UniProt P08684); test: Inhibition of human CYP3A4 at 0.0457 to 100 uM; assay type: ADME
Chain of Cytochrome P450 3A4 (P08684 whole entry): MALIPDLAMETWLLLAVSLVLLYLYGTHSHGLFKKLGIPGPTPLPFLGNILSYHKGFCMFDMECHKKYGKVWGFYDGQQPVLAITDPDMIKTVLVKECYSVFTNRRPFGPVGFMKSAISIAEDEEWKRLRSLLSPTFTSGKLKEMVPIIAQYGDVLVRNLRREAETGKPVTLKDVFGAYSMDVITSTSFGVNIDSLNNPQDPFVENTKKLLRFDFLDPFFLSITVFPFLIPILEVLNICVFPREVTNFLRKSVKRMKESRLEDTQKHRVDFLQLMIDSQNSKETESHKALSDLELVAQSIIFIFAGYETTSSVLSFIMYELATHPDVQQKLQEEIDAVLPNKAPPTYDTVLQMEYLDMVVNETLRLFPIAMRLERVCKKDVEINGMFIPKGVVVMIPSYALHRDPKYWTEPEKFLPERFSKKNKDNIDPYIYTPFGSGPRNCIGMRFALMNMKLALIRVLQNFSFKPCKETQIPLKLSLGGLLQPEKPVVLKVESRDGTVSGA

remaining at 2 h [4] [%]	inhibition (INH) [5]	SMILES	Activity [1]	Activity [2] [%]	Activity [3]
–	–	CCN(CC)CCNC(=O)c1cc(Cl)c(N)cc1OC.Cl	Active	41	–
99	Active	C[C@@H]1CN[C@@H](C2CC2)C(=O)N(C)[C@H](C)C(=O)N[C@H](Cc2ccc(F)cc2)C(=O)NCCCc2ccccc2O1 [ULIMORELIN]	–	–	30 - 39%
